Laboratory results published in article PMC7377239, “Cardiovascular Effects of Polychlorinated Biphenyls and Their Major Metabolites” (Environmental Health Perspectives, 2020).
Read-outs that look alike come from different tables or passages of the source.

Test system: iCell cardiomyocytes (human iPSC-derived cardiomyocytes)
Assay: High-content imaging of cytotoxicity and mitochondrial integrity in iPSC-CMs
Type: cell-based
Conditions: Homo sapiens; for viability at 0.01 µM / activity at 0.01 µM / viability at 0.1 µM / activity at 0.1 µM / viability at 1 µM / activity at 1 µM / viability at 10 µM / activity at 10 µM / viability at 100 µM / activity at 100 µM: 0.00 µM = 100.00; for viability at 0.1 µM / activity at 0.1 µM: 0.10 µM
Method: Details on cardiomyocyte cell culture are described in detail elsewhere ([Grimm et al. 2015b]; [Sirenko et al. 2013a]). Briefly, tissue-culture treated 384 well plates were gelatinized with 25μL per well of 0.1% (w/v) gelatin in water for 2 h at 37°C and 5% CO2 . Individual vials of cells were thawed for 4 min in a water bath maintained at 37°C. Thawed cells were resuspended in 10ml plating medium containing 1:500 (vol/vol) penicillin/streptomycin solution at room temperature (RT). Live cell counts for each cell suspension were determined by trypan blue staining and cells were further diluted to provide final cell densities of 2×10^5 viable cells/ml. Thus, 5,000 cells suspended in 25μL media were transferred per well after the gelatin solution had been discarded. Cell culture plates were rested for 30 min at RT before they were incubated for 48 h at 37°C and 5% CO2 . Then, a media exchange with 30μL of fresh maintenance medium containing 1:500 (vol/vol) penicillin/streptomycin solution was performed, and cell media were subsequently changed every 48 h for 12 d. On the experiment day, the medium was completely exchanged with either 25μL (for Ca^2+ flux assay) or 40μL (for imaging) of fresh medium.
Cytotoxicity and effects on mitochondrial integrity of various PCBs and PCB metabolites in induced pluripotent stem cell-CMs (iPSC-CMs) were assessed using high-content cellular imaging in ImageXpress® Micro Confocal (Molecular Devices) as detailed in ([Grimm et al. 2015b]). Cells in 40μL maintenance media were treated with 10μL of 5× chemical solutions to provide test chemicals at final assay concentrations ranging from 0.01 to 100μM . […] Next, sample wells were treated with 50μL equilibrated 2× concentrated staining solution (maintenance medium containing Hoechst 33342, 4μg/mL and MitoTracker™ Orange, 0.4μM ). Microplates were then incubated for 15 min at 37°C and 5% CO2 before cells were washed twice with 30μL maintenance medium. All media were aspirated and discarded, and cells were fixed with […] of a 3.7% formaldehyde solution for 15 min at 37°C and 5% […] . Fixed cells were washed 3× with 25μL PBS before image acquisition using the DAPI (Hoechst 33342) and Cy3 (MitoTracker™ Orange) filters at 10× magnification on the ImageXpress® Micro Confocal high-content confocal microscope (Molecular Devices). The multiwavelength cell scoring applications module in MetaXpress® was used to analyze acquired images.
Phenotypic responses were quantitatively assessed using concentration–response modeling as detailed elsewhere ([Sirenko et al. 2017]). Briefly, phenotypic readouts were normalized to vehicle controls and fit to a four-parameter logistic model in R studio software (version 3.1.1; R Development Core Team). Following EPA guidance on dose–response modeling, a cutoff of one standard deviation across means of vehicle control (i.e., 0.5% vol/vol DMSO in cell culture media) wells was applied to determine the point-of-departure (POD) values ([U.S. EPA 2012]). In the absence of a concentration–response, the highest tested concentration (i.e., 100μM ) was assigned as “no observable adverse effect level.” The concentration–response assessment R script, as well as templates for vehicle and concentration–response data, are available as a supplement to Sirenko et al. ([2017]). The ability of physicochemical properties to predict differences in PODs were evaluated by multiregression and mixed-effects modeling using R.

[1] = Cardiomyocyte, 1.5 h, read-out: cm.cam.90min
[2] = Cardiomyocyte, 1.5 h, read-out: cm.mii.90min
[3] = Cardiomyocyte, 1.5 h, read-out: cm.mito.90min
[4] = Cardiomyocyte, 1.5 h, read-out: cm.tc.90min
[5] = Cardiomyocyte, 24 h, read-out: cm.cam.24hrs
[6] = Cardiomyocyte, 24 h, read-out: cm.mii.24hrs
[7] = Cardiomyocyte, 24 h, read-out: cm.mito.24hrs
[8] = Cardiomyocyte, 24 h, read-out: cm.tc.24hrs

With `Oc1ccccc1-c1ccc(Cl)cc1` [2'-OH PCB3] the viability at 0.01 µM [1] was 104%, the activity at 0.01 µM [2] was 111% and the activity at 0.01 µM [3] was 104%. The viability at 0.01 µM [4] was 104%, the viability at 0.1 µM [1] was 95.6% and the activity at 0.1 µM [2] was 113%. The activity at 0.1 µM [3] was 95.6%, the viability at 0.1 µM [4] was 95.6% and the viability at 1 µM [1] was 101%. For the same compound, the activity at 1 µM [2] was 101%, the activity at 1 µM [3] was 101% and the viability at 1 µM [4] was 101%. For the same compound, the viability at 10 µM [1] was 102%, the activity at 10 µM [2] was 92.5% and the activity at 10 µM [3] was 102%. The viability at 10 µM [4] was 102%, the viability at 100 µM [1] was 0% and the activity at 100 µM [2] was 32.7%. It also gave an activity at 100 µM [3] of 0.07%, a viability at 100 µM [4] of 0.07% and a viability at 0.01 µM [5] of 95.1%. For the same compound, the activity at 0.01 µM [6] was 98.5%, the activity at 0.01 µM [7] was 92.6% and the viability at 0.01 µM [8] was 94.5%. The viability at 0.1 µM [5] was 94.5%, the activity at 0.1 µM [6] was 96% and the activity at 0.1 µM [7] was 91.2%. The viability at 0.1 µM [8] was 94.3%, the viability at 1 µM [5] was 99.7% and the activity at 1 µM [6] was 98.3%. For the same compound, the activity at 1 µM [7] was 96.7%, the viability at 1 µM [8] was 99.8% and the viability at 10 µM [5] was 103%. The activity at 10 µM [6] was 74.7%, the activity at 10 µM [7] was 104% and the viability at 10 µM [8] was 103%. It also gave a viability at 100 µM [5] of 0%, an activity at 100 µM [6] of 0% and an activity at 100 µM [7] of 0%. For the same compound, the viability at 100 µM [8] was 0%, the minimal effective concentration (iPSC-CM, 1.5 h, iPSC-CM, read-out: cm.cam.90min POD) was 32.8 µM and the minimal effective concentration (iPSC-CM, 1.5 h, iPSC-CM, read-out: cm.mii.90min POD) was 9.15 µM. The minimal effective concentration (iPSC-CM, 1.5 h, iPSC-CM, read-out: cm.mito.90min POD) was 41.4 µM, the minimal effective concentration (iPSC-CM, 1.5 h, iPSC-CM, read-out: cm.tc.90min POD) was 34.5 µM and the minimal effective concentration (iPSC-CM, 24 h, iPSC-CM, read-out: cm.cam.24hrs POD) was 40.4 µM. The minimal effective concentration (iPSC-CM, 24 h, iPSC-CM, read-out: cm.mii.24hrs POD) was 6.56 µM, the minimal effective concentration (iPSC-CM, 24 h, iPSC-CM, read-out: cm.mito.24hrs POD) was 29.8 µM and the minimal effective concentration (iPSC-CM, 24 h, iPSC-CM, read-out: cm.tc.24hrs POD) was 35.9 µM.
With `Oc1ccccc1-c1ccc(Cl)cc1` [2'-OH-PCB 3] the minimal effective concentration (Cardiomyocyte, 1.5 h, cardiomyocytes (cm), cam, 90 min, read-out: POD cm.cam.90min) was 32.8 µM, the minimal effective concentration (Cardiomyocyte, 1.5 h, cardiomyocytes (cm), mii, 90 min, read-out: POD cm.mii.90min) was 9.15 µM and the minimal effective concentration (Cardiomyocyte, 1.5 h, cardiomyocytes (cm), mito, 90 min, read-out: POD cm.mito.90min) was 41.4 µM. The minimal effective concentration (Cardiomyocyte, 1.5 h, cardiomyocytes (cm), tc, 90 min, read-out: POD cm.tc.90min) was 34.5 µM, the minimal effective concentration (Cardiomyocyte, 24 h, cardiomyocytes (cm), cam, 24 hrs, read-out: POD cm.cam.24hrs) was 40.4 µM and the minimal effective concentration (Cardiomyocyte, 24 h, cardiomyocytes (cm), mii, 24 hrs, read-out: POD cm.mii.24hrs) was 6.56 µM. For the same compound, the minimal effective concentration (Cardiomyocyte, 24 h, cardiomyocytes (cm), mito, 24 hrs, read-out: POD cm.mito.24hrs) was 29.8 µM and the minimal effective concentration (Cardiomyocyte, 24 h, cardiomyocytes (cm), tc, 24 hrs, read-out: POD cm.tc.24hrs) was 35.9 µM.
